Experimental data taken from patent US20240189263A1, “DERIVATIZED C60 MOLECULES AND METHODS AND MATERIALS FOR USING DERIVATIZED C60 MOLECULES TO REDUCE RADIATION INJURY” (Mayo Foundation for Medical Education and Research, priority 2021, published 2024).

Experiments:
Type in all cases: cell-based
N2A cells [1] = experiment: Seahorse mitochondrial respiration (oxygen consumption rate), N2A; details: pretreated 2 hours before 1 Gy 230 MeV proton
Method: The oxygen consumption rates were assessed in N2A, HUVEC, NIH3T3, and HepG2 cell lines with a Seahorse XFe96 (Agilent Technologies, Santa Clara, CA, USA). Cells were treated with 0 and 1 Gy of 230 MeV proton irradiation. The control plates were run at about the same time post plating. Each cell line was optimized prior to these experiments, and data was presented normalized to cell number plated. The standard mitochondrial stress test was performed using serial injections of oligomycin (1.5 μM), carbonyl cyanide p-(trifluoromethoxy)phenylhydrazone (FCCP, 1 μM), and rotenone/antimycin A mixture (0.5 μM). After injection of oligomycin, which inhibits ATP synthase (complex V), there was a drop in electron flow through the electron transport chain (ETC) and a resultant drop in oxygen consumption rate (OCR) of the cells. Injection of FCCP collapsed the proton gradient and allowed for uninhibited electron flow through the ETC supercomplexes. […] The reserve respiratory capacity was calculated by subtracting the basal respiratory capacity from the maximal respiratory capacity.

N2A cells [2] = experiment: DNA damage, γH2AX foci immunofluorescence, N2A
Method: (§1) To test the ability of C60-ser to protect against radiation injury, the level of DNA damage in response to radiation was analyzed by measuring γH2AX. The H2AX protein becomes phosphorylated into γH2AX as a result of DNA double strand breaks. This allows for the visualization and quantification of double strand break foci through immunofluorescence analysis. Cells were plated on 8 chamber slides and incubated overnight before C60-ser treatment. Three sets of slides per cell line (to be irradiated with 0, 0.5, and 1 Gy) were prepared, with the top 4 rows used as a control and the bottom 4 rows incubated with 100 μM C60-ser. Cells were incubated with C60-ser for 2 hours before irradiation with a clinical Proteus One proton machine (Ion Beam Applications, Louvain-la-Neuve, Belgium). A 230 MeV mono-energetic unmodulated broad beam of large field size that encompassed all slides containing the cells was used to deliver the 0.5 and 1 Gy doses. White solid water slabs (IBA Dosimetry, Germany) provided the necessary phantom material to place the cells at the desired 8 cm depth with an LET of approximately 1.7 keV/μm. After irradiation, cells were incubated at 37° C. with 5% CO2 for 30 minutes before washing and fixing the cells with 1% formaldehyde. The cells were permeabilized with 1% NP-40 and incubated with 5% BSA to block unspecific antibody bonding. The cells were then incubated with γH2AX primary antibody followed by a secondary antibody. Mounting media containing DAPI was used before applying cover slips and sealing the samples. Cells were imaged on an Olympus IX71 trinocular inverted fluorescence phase contrast microscope with a 40× objective. The resulting images were analyzed by ImageJ, and the foci were counted.

HUVEC cells = experiment: DNA damage, γH2AX foci immunofluorescence, HUVEC
Method: as §1

N2A cells [3] = experiment: ROS by H2-DCFDA probe after proton irradiation, N2A; details: pretreated 100 μM, TBHP 200 μM, 1 Gy proton, read 30 minutes post radiation
Text: Cell lines were irradiated using pencil beam scanning (PBS) proton beams produced by IBA ProteusOne (Ion Beam Applications, Louvain-la-Neuve, Belgium). Single layer mono-energy 227 MeV pencil beams with uniform spacing of 0.25 cm between each spot were used to create a large field size with uniform dose distribution (±2%) that encompassed all sample wells containing the cells. A fixed source to surface distance (SSD) setup and gantry at 180 degrees was used to delivery 0.5, 1, 2, 4, and 6 Gray (Gy) dose of ionizing radiation to cells. The cells were place at an 8 cm depth, with a linear energy transfer (LET) of approximately 1.7 keV/μm, using solid water slabs as a buildup. […] The monitor units needed to deliver the intended dose were calculated using the measure dose/MU values.
Post radiation, 2′,7′-dichlorodihydrofluorescein diacetate (H2-DCFDA) probes were used to measure the level of reactive oxygen species (ROS) post-proton radiation (1 Gy, 230 MeV proton beam). […] A fluorescence microplate reader (SpectraMax M5, Molecular Devices Corporation, California, USA) was used to detect the generation of fluorescent DCF molecules with an excitation filter of 485 nm and an emission filter of 525 nm, with a 515 nm cutoff filter. […] Following irradiation, the cells were transported back for plate reading, 30 minutes post radiation.

[4] = 100 μM 2 hours before 0.5 Gy proton radiation
[5] = 100 μM 2 hours before 1 Gy proton radiation
[6] = 100 μM 2 hours, absence of radiation

O=C(NC(CO)CO)C1(C(=O)NC(CO)CO)C23c4c5c6c7c8c4-c4c2c2c9c%10c4C4%11c%12c-%10c%10c%13c%14c%12-c%12c(c-7c7c%15c%12C%14%12C(C(=O)NC(CO)CO)(C(=O)NC(CO)CO)C%12%14c%12c%16c%17c%18c(c%12-%15)C7%12C(C(=O)NC(CO)CO)(C(=O)NC(CO)CO)C6%12c6c-5c5c7c(c6-%18)C%176C(C(=O)NC(CO)CO)(C(=O)NC(CO)CO)C6%12c6c-7c(c-2c2c6-c6c%12c-%16c%14c-%13c6C%106C(C(=O)NC(CO)CO)(C(=O)NC(CO)CO)C926)C513)C84C%11(C(=O)NC(CO)CO)C(=O)NC(CO)CO (centres unmarked) [C60-ser, C60-serinol]
radiation-induced increase in respiratory capacity (N2A cells [1]): dampened and, in some cases, reduced to normal or slightly below normal levels | γH2AX foci vs control (N2A cells [2]; [4]): trend towards reduction in total foci formed, but it was not statistically significant | γH2AX foci vs control (N2A cells [2]; [5]): significant decrease in the number of foci | γH2AX foci vs control (N2A cells [2]; [6]): no significant different in foci expression | γH2AX foci vs control (HUVEC cells; [4]): trend towards reduction in total foci formed, but it was not statistically significant | γH2AX foci vs control (HUVEC cells; [5]): significant decrease in the number of foci | γH2AX foci vs control (HUVEC cells; [6]): no significant different in foci expression | ROS (H2-DCFDA fluorescence) (N2A cells [3]): significant reduction in ROS
